The source of these data is US5523312A, “Antipicornaviral agents” (priority 1994, dated 1996).

A short description of experiment [1]: automated TCID-50 assay, rhinovirus-induced CPE in HeLa cells, panel T. The format is cell-based. The following applies: Human rhinovirus sp., HRV2, 72 h, read-out: MIC50 (minimum concentration of the compound required to inhibit 50% of the tested serotypes). As to the method:
(§1) The MIC values were determined by an automated tissue culture infectious dose 50% (TCID-50) assay. HeLa cells in monoloyers in 96-well cluster plates were infected with a dilution of picornavirus which had been shown empirically to produce 80% to 100% cytopathic effect (CPE) in 3 days in the absence of drug. The compound to be tested was serially diluted through 10, 2-fold cycles and added to the infected cells. After a 3 day incubation at 33° C. and 2.5% carbon dioxide, the cells were fixed with a 5% solution of glutaraldehyde followed by staining with a 0.25% solution of crystal violet in water. The plates were then rinsed, dried, and the amount of stain remaining in the well (a measure of intact cells) was quantitated with an optical density reader. The MIC was determined to be the concentration of compound which protected 50% of the cells from picornavirus-induced CPE relative to an untreated picornavirus control.
(§2) In the above test procedures, representative compounds of formula I were tested against some the serotypes from either a panel of fifteen human rhinovirus (HRV) serotypes, (noted in the table as panel T) namely, HRV-2, -14, -1A, -1B, -6, -21, -22, -15, -25, -30, -50, -67, -89, -86 and -41 or against some of the serotypes from a panel of 10 human rhinovirus serotypes, namely HRV-3, -4, -5, -9, -16, -18, -38, -66, -75 and -67, (noted in the table as panel B) and the MIC value, expressed in micrograms per milliliter […], for each rhinopicornavirus serotype was determined for each picornavirus, example 1e is given as an example of the data. Then MIC50 values, which are the minimum concentrations of the compound required to inhibit 50% of the tested serotypes were determined.
(§3) The following Table gives the test results for representative compounds of the invention. The panel of picornaviruses used in the test appears before the MIC80 and MIC50 figure and the number of serotypes which the compound is tested against (n) is indicated after the MIC80 and MIC50 figure.

In experiment [2] the test system is human rhinovirus (HRV) serotypes, panel B (HRV-3, -4, -5, -9, -16, -18, -38, -66, -75 and -67). The experiment in a line: automated TCID-50 assay, rhinovirus-induced CPE in HeLa cells, panel B. The class given is cell-based. The note with it: Human rhinovirus sp., HRV3, 72 h, read-out: MIC50 (minimum concentration of the compound required to inhibit 50% of the tested serotypes). The procedure: as §1, §2, §3

≈ marks a conversion by molar mass, not a printed value.

For the compound `Cc1cc(CCCCc2cc3cc(-c4noc(C)n4)ccc3o2)on1` [Example 1f], the MIC50 in experiment [1] was determined as 19.9 µg/mL (≈ 59 µM).

Consider `Cc1cc(CCCc2cc3cc(-c4noc(C)n4)cc(C)c3o2)on1` [Example 1g], for which the MIC50 in experiment [1] amounted to 6.85 µg/mL (≈ 20.3 µM).

As for `Cc1cc(CCCCc2cc3cc(-c4noc(C)n4)cc(Cl)c3o2)on1` [Example 1h], the MIC50 in experiment [1] was 0.124 µg/mL (≈ 0.333 µM).

As for `Cc1cc(CCCCc2cc3cc(-c4noc(C(F)(F)F)n4)cc(C)c3o2)on1` [Example 1i], the MIC50 in experiment [1] was 37.4 µg/mL (≈ 92.2 µM).

Turning to `Cc1cc(CCCCCc2cc3cc(C(=O)O)ccc3o2)on1` [Example 1j], the MIC50 in experiment [1] was 51.1 µg/mL (≈ 163 µM).

Consider `Cc1cc(CCCCCc2cc3cc(C4=NCCO4)ccc3o2)on1` [Example 1k], for which the MIC50 in experiment [1] is 0.585 µg/mL (≈ 1.73 µM).

With `CCCCn1nnc(-c2cc(C)c3oc(CCCCc4cc(C)no4)cc3c2)n1` [Example 1l], the MIC50 in experiment [1] was 49.8 µg/mL (≈ 127 µM).

On to `Cc1cc(CCCc2cc3cc(-c4nnn(C)n4)cc(C)c3o2)on1` [Example 1m], for which, in experiment [1], the MIC50 was found to be 0.192 µg/mL (≈ 0.569 µM).

Turning to `Cc1cc(CCc2cc3cc(-c4nnn(C)n4)cc(C)c3o2)on1` [Example 1n], the MIC50 in experiment [1] stood at 33.8 µg/mL (≈ 105 µM).

With `Cc1cc(CCCn2ccc3cc(-c4noc(C)n4)ccc32)on1` [Example 2c], in experiment [2], the MIC50 is 50.9 µg/mL (≈ 158 µM).

In the case of `Cc1cc(CCCCn2ccc3cc(-c4noc(C(F)(F)F)n4)cc(C)c32)on1` [Example 2d], in experiment [2], the MIC50 is 0.5 µg/mL (≈ 1.24 µM).

Take `Cc1cc(CCCCCn2ccc3cc(-c4noc(C(F)F)n4)cc(C)c32)on1` [Example 2e]: the MIC50 in experiment [2] worked out at 3.13 µg/mL (≈ 7.82 µM).

Turning to `Cc1cc(CCCCCn2ccc3cc(-c4noc(C(F)(F)F)n4)cc(C)c32)on1` [Example 2f], in experiment [2], the MIC50 is 0.307 µg/mL (≈ 0.734 µM).

Regarding `Cc1cc(CCCn2ccc3cc(-c4noc(C(F)F)n4)ccc32)on1` [Example 2g], the MIC50 in experiment [2] worked out at 69.4 µg/mL (≈ 194 µM).

As to `Cc1cc(CCCn2ccc3cc(-c4noc(C)n4)cc(C)c32)on1` [Example 2h], the MIC50 in experiment [2] was 0.158 µg/mL (≈ 0.47 µM).

As for `Cc1cc(CCCn2ccc3cc(-c4noc(C(F)(F)F)n4)ccc32)on1` [Example 2i], the MIC50 in experiment [2] worked out at 0.549 µg/mL (≈ 1.46 µM).
